Test results published in patent US10654819B2, “Processes for the preparation of 2,5-furandicarboxylic acid and intermediates and derivatives thereof” (Stora Enso Oyj, priority 2016, dated 2020).

Key:
[1] = FDCA solubility characterization in candidate solvents (Example 1); assay type: physicochemical
Procedure: Solvents were screened for the ability to dissolve FDCA. 10 ml of a candidate solvent was heated to a certain temperature and FDCA (Product No. F0710, TCI America) was added by small portions to the heated candidate solvent until the FDCA amount exceeded the solubility limit. After that, small volumes of solvent were added until the excess solids were completely dissolved. The experiment was repeated two times at each temperature and the average was taken as FDCA solubility. Five solvents were tested: (1) deionized water; (2) diglyme; (3) dioxane; (4) a 1:1 by volume mixture of diglyme with deionized water; and (5) a 4:1 by volume mixture of dioxane with deionized water. The results are depicted in FIG. 3 as a plot of FDCA Solubility (Weight %) as a function of temperature (° C.). […] However, when each of the organic solvents was combined with water, the resulting co-solvent appeared to provide a synergistic enhancement in FDCA solubilizing capability. […] Similarly, at 100° C., although FDCA solubility in water and dioxane individually was less than 1% (by weight) and less than 2% (by weight), respectively, the FDCA solubility trend line for the co-solvent system of 1:4 ratio of deionized water:dioxane, by volume, indicates 9% (by weight) FDCA solubility.

[2] = FDCA solubility studies in various solvent compositions, visual inspection of dissolution (Example 23); assay type: physicochemical
Procedure: A series of samples containing various amounts of FDCA and mixed solvent compositions were prepared in sealed pressure ampules (typically containing 2-5 g material (FDCA and solvent composition)). For example, 200 mg FDCA, 900 mg NMP, and 900 mg de-ionized water were added to an 8 mL glass vial with a stir bar inside, corresponding to a mixture containing 10 wt % FDCA. Other samples corresponding to different wt % FDCA samples in various mixed solvent compositions were prepared in a similar manner. […] The reported FDCA solubility in Table 11 represents the maximum wt % FDCA that can be dissolved in the given solvent composition using this testing method.

SMILES: O=C(O)c1ccc(C(=O)O)o1 [FDCA, 2,5-furandicarboxylic acid]
- FDCA solubility ([1]; in 1:1 deionized water:diglyme by volume, 100° C.): 9 % (by weight)
- FDCA solubility ([1]; in 1:4 deionized water:dioxane by volume, 100° C., from trend line): 9 % (by weight)
- FDCA solubility ([1]; in diglyme, 22° C. to 100° C.): less than 2 % by weight
- FDCA solubility ([1]; in diglyme, 100° C.): less than 2 % (by weight)
- FDCA solubility ([1]; in dioxane, 22° C. to 100° C.): less than 2 % by weight
- FDCA solubility ([1]; in dioxane, 100° C.): less than 2 % (by weight)
- FDCA solubility ([1]; in water, 22° C. to 140° C.): less than 2 % by weight
- FDCA solubility ([1]; in water, 100° C.): less than 1 % (by weight)
- FDCA solubility ([2]; Bu^tOH 50 wt. % / H2O 50 wt. %, 100 ° C.): 7.0 wt. %
- FDCA solubility ([2]; Bu^tOH 75 wt. % / H2O 25 wt. %, 100 ° C.): 7.5 wt. %
- FDCA solubility ([2]; MEK 25 wt. % / H2O 75 wt. %, 100 ° C.): 5.5 wt. %
- FDCA solubility ([2]; MEK 90 wt. % / H2O 10 wt. %, 100 ° C.): 4.0 wt. %
- FDCA solubility ([2]; NMP 20 wt. % / H2O 80 wt. %, 23 ° C.): 0.3 wt. %
- FDCA solubility ([2]; NMP 20 wt. % / H2O 80 wt. %, 100 ° C.): 4.0 wt. %
- FDCA solubility ([2]; NMP 20 wt. % / H2O 80 wt. %, 120 ° C.): 7.5 wt. %
- FDCA solubility ([2]; NMP 35 wt. % / H2O 65 wt. %, 23 ° C.): 0.5 wt. %
- FDCA solubility ([2]; NMP 35 wt. % / H2O 65 wt. %, 100 ° C.): 9.0 wt. %
- FDCA solubility ([2]; NMP 35 wt. % / H2O 65 wt. %, 120 ° C.): 13.5 wt. %
- FDCA solubility ([2]; NMP 50 wt. % / H2O 50 wt. %, 100 ° C.): 14.5 wt. %
- FDCA solubility ([2]; NMP 50 wt. % / H2O 50 wt. %, 120 ° C.): 19.5 wt. %
- FDCA solubility ([2]; gamma-valerolactone 25 wt. % / H2O 75 wt. %, 100 ° C.): 4.0 wt. %
- FDCA solubility ([2]; gamma-valerolactone 50 wt. % / H2O 50 wt. %, 100 ° C.): 7.0 wt. %
- FDCA solubility ([2]; gamma-valerolactone 75 wt. % / H2O 25 wt. %, 100 ° C.): 6.5 wt. %
